Experimental data from patent US8569294B2, “2-(cyclic amino)-pyrimidone derivatives” (Mitsubishi Tanabe Pharma Corporation, priority 2006, dated 2013).

These compounds were tested against T1, bovine cerebral TPK1 (Bos taurus, UniProt A0A3Q1MT31) (assay: Inhibitory activity against P-GS1 phosphorylation by bovine cerebral TPK1). Conditions: 41.7 μM [γ-32P] ATP, 25° C., 2 hours.
T1 construct: P-GS1 Phosphorylation by Bovine Cerebral TPK1; from tissue; host or cells: bovine cerebrum (brain)
Assay type: biochemical
Procedure: Inhibitory Activity of the Medicament of the Present Invention Against P-GS1 Phosphorylation by Bovine Cerebral TPK1
A mixture containing 100 mM MES-sodium hydroxide (pH 6.5), 1 mM magnesium acetate, 0.5 mM EGTA, 5 mM β-mercaptoethanol, 0.02% Tween 20, 10% glycerol, 12 μg/ml P-GS1, 41.7 μM [γ-^32P] ATP (68 kBq/ml), bovine cerebral TPK1 and a compound shown in Table (a final mixture contained 1.7% DMSO deriving from a solution of a test compound prepared in the presence of 10% DMSO) was used as a reaction system. The phosphorylation was started by adding ATP, and the reaction was conducted at 25° C. for 2 hours, and then stopped by adding 21% perchloric acid on ice cooling. The reaction mixture was centrifuged at 12,000 rpm for 5 minutes and adsorbed on P81 paper (Whatmann), and then the paper was washed four times with 75 mM phosphoric acid, three times with water and once with acetone. The paper was dried, and the residual radioactivity was measured using a liquid scintillation counter.

T1 sequence (A0A3Q1MT31 1-419): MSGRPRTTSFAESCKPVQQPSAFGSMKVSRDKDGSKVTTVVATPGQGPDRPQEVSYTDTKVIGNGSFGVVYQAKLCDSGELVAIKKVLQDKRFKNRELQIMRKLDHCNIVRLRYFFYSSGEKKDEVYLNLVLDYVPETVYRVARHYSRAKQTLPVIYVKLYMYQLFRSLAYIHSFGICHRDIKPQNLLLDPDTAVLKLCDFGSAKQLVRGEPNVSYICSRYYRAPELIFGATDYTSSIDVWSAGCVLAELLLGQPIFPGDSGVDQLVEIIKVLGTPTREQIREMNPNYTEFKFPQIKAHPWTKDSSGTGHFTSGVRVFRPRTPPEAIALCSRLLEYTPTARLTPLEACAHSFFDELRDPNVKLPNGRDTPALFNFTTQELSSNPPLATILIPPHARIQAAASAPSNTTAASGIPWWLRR

IC50 [nM] | Compound
14 | COc1ccccc1N1C[C@@H]2CN(c3nc(-c4ccncc4F)cc(=O)n3C)C[C@@H]2C1 [D16]
7.9 | COc1cccc(N[C@@H]2CCN(c3nc(-c4ccncn4)cc(=O)n3C)C2)c1 [D42]
5.6 | Cn1c(N2CCCC2Cc2ccccc2)nc(-c2ccncc2F)cc1=O (centres unmarked) [D95]
1.4 | C[C@@H]1CN(c2ccccc2)CCN1c1nc(-c2ccncn2)cc(=O)n1C [F24]
2.2 | C[C@@H]1CN(c2ncccn2)CCN1c1nc(-c2ccncc2F)cc(=O)n1C [F56]
2.4 | C[C@@H]1CN(C(=O)c2ccc(N(C)C)cc2)CCN1c1nc(-c2ccncn2)cc(=O)n1C [F69]
2.6 | C[C@H](N)c1nc(-c2ccc(N3CCN(c4nc(-c5ccncc5)cc(=O)n4C)[C@H](C)C3)cc2)no1 [F148]

The next lines start with the compound.

Compound | IC50 [nM]
Cn1c(N2CCO[C@H]3CCCC[C@@H]32)nc(-c2ccncn2)cc1=O (racemic) [B69, 1-Methyl-2-((4aRS,8aRS)-trans-octahydro-benzo[1,4]oxazin-4-yl)-1H-[4,4′]bipyrimidinyl-6-one] | 4
Cn1c(N2CCO[C@H]3c4ccccc4CC[C@@H]32)nc(-c2ccncc2F)cc1=O [B6] | 1.7
Cn1c(N2CC3CCC2C(c2ccccc2)C3)nc(-c2ccncc2)cc1=O (centres unmarked) [B9] | 1.2
COc1ccccc1NC1CC2CCC(C1)N2c1nc(-c2ccncc2F)cc(=O)n1C (centres unmarked) [B16] | 2.8
COc1ccc2c(c1)CC[C@H]1[C@H]2OCCN1c1nc(-c2ccncc2F)cc(=O)n1C [B20] | 1.1
COc1cccc2c1CC[C@@H]1[C@H]2OCCN1c1nc(-c2ccncc2)cc(=O)n1C [B37] | 1.5
Cn1c(N2CCO[C@H]3c4ccccc4OC[C@H]32)nc(-c2ccncn2)cc1=O [B46] | 2.5
C[C@@H]1COCCN1c1nc(-c2ccncc2F)cc(=O)n1C [B62] | 7
Cn1c(N2C3CCCC2CC3)nc(-c2ccncc2F)cc1=O [B77] | 9.8
Cn1c(N2CCN3CCc4ccccc4C3C2)nc(-c2ccncc2)cc1=O (centres unmarked) [B109, 2-(1,3,4,6,7,11b-Hexahydro-pyrazino[2,1-a]isoquinolin-2-yl)-3-methyl-6-pyridin-4-yl-3H-pyrimidin-4-one] | 14
